In patent US10328079B2, “[6R]-MTHF multiple bolus administration in 5-fluorouracil based chemotherapy” (Isofol Medical AB, priority 2017, dated 2019):
Values joined by “and” are separate entries in the source; they are usually repeats but may differ in a detail not shown here. Equal values may be shown once. “Also recorded” adds a separate entry of the source. Read-outs that look alike come from different tables or passages of the source.

Columns and labels:
solid tumors = conditions: cited from earlier work
colorectal tumors = conditions: cited from earlier work
[1] = system: advanced and recurring head and neck squamous cell cancer; conditions: 5-FU in combination therapies with platinum compounds; cited from earlier work
colorectal cancer = conditions: cited from earlier work; for ORR: Phase IIb, first-line patients, in combination with 5-FU
[2] = Phase IIb, first-line patients, in combination with 5-FU; cited from earlier work
[3] = system: previously untreated metastatic colorectal cancer; conditions: Phase II Trial; cited from earlier work
pancreas cancer = conditions: CoFactor combined with 5-FU; cited from earlier work
[4] = system: thymidylate synthase (TS); test: Historical group comparison study: incremental plasma dUrd (marker of TS inhibition) 24 h after 5-FU bolus plus folate; format: in vivo, human
Experimental: The elevation of plasma 2′-deoxyuridine (dUrd) is a marker of TS inhibition. (Ford et al. (2002) Clinical Cancer Research, 8(1): 103-109).
The historical group comparison study was conducted as follows:
All patients were treated with a standard dose of 500 mg 5-FU given as a bolus injection plus the respective folate [6R]-MTHF or LV, also given as bolus injections.
In Gothenburg (Sweden), for almost two decades, clinical, treatment and outcomes data on all patients with CRC have been collected at the local university hospital (Östra sjukhuset—Sahlgrenska Universitetssjukhuset). Plasma and tissue samples have been stored in a biobank under appropriate physical conditions for long term storage. The database and the biobank operate under the auspices of the relevant ethical and regulatory permissions. Patients having been treated with the standard 5-FU dose, 500 mg/m2 plus i.v. bolus LV, 60 mg/m2 were randomly drawn from the databank. For all patients, stored plasma samples were used for determination of dUrd.
Twenty-four patients with metastatic colorectal cancer (mCRC) treated with 5-FU plus 60 mg/m^2 LV were drawn at random from the database and levels of dUrd were determined at t0 and t24 from two treatment cycles for each patient and the mean values and standard deviations for the differences between t24 and t0 were calculated in the same way as for the [6R]-MTHF patients. Since LV is a “racemic” 50:50 mixture of the natural (S-formyl-tetrahydrofolate) and unnatural (R-formyl-tetrahydrofolate) isomers, the active isomer constitutes one half of the racemic LV doses given. The molecular weights for LV and [6R]-MTHF are very similar and therefore 60 mg of LV may be considered as equimolar with 30 mg of [6R]-MTHF.
All patients were enrolled in the ISO-CC-005 study and measured during two consecutive treatment cycles with 5-FU. Values for dUrd were measured immediately before injection of 5-FU (to) and after 24 hours (t24). Mean values and standard deviations for differences between t24 and to were calculated for the patients on each dose level of 30 and 60 mg/m^2 respectively.
The differences between all three groups were tested by means of the […] and thereafter the difference between the two equimolar groups LV 60 mg/m2 and 6R-MTHF 30 mg/m^2 was tested by means of the Mann-Whitney U test. P-values less than 0.05 were considered significant.
Plasma dUrd was determined by a method comprising liquid chromatography followed by tandem mass spectrometry broadly summarized as follows. Plasma samples were removed from −80° C. freezer, trichloroacetic acid was added to the plasma, and the samples mixed and centrifuged. The supernatant was filtered in a 10 kDa molecular weight cut-off membrane filter and again centrifuged for 30 min. The solution at the bottom of the tube was then ready for LC-MS/MS analysis. Calibration samples were prepared in the same way using blank plasma samples and different internal standard concentrations. The injection volume into LC-MS/MS was 40 μl. Deoxyuridine and chlorodeoxyuridine were ionized by electrospray negative mode. MS parameters were optimized for maximum response of all folates. A MS/MS acquisition method (multiple reaction monitoring) was utilized.

Thymidylate Synthase = Thymidylate Synthase (Lacticaseibacillus casei, UniProt P00469); conditions: cited from earlier work
Chain of Thymidylate Synthase (P00469 whole entry): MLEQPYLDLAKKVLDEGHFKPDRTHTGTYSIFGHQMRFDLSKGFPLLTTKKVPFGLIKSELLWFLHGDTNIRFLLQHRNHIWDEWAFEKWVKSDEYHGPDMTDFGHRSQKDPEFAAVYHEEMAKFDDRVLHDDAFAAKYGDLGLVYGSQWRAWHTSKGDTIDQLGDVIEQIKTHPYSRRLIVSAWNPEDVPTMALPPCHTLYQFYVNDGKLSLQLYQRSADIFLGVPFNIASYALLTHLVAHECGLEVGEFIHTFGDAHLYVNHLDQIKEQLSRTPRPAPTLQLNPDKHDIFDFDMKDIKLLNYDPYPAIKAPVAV

[5] = system: stage IV colorectal cancer; test: ISO-CC-005 Phase I/II trial: tumor response according to RECIST 1.1; format: in vivo, human; conditions: for ORR (objective response rate): after 8 weeks' treatment, with 5-FU
Description: As used herein, the term ORR shall refer to the Objective Response Rate, i.e. the proportion of patients with reduction in tumor burden of a predefined amount.
Complete Response (CR): • Disappearance of all target lesions. Any pathological lymph nodes (whether target or non-target) must have reduction in short axis to <10 mm.
(Note: the appearance of one or more new lesions is also considered progression).
Stable Disease (SD): • Neither sufficient shrinkage to qualify for PR nor sufficient increase to qualify for PD, taking as reference the smallest sum diameters while on study. (Eisenhauer E A, Therasse P, Bogaerts J, Schwartz L H, Sargent D, Ford R, et al. New response evaluation criteria in solid tumors: revised RECIST guideline (version 1.1). Eur J Cancer. 2009 January; 45(2):228-47)
The safety and efficacy of [6R]-5,10-methylenetetrahydrofolate ([6R]-MTHF) is analyzed in an open-label, multiple-site, Phase I/II Dose Cohort Trial (ISO-CC-005) in combination with a fixed dose of 5-Fluorouracil (5-FU) alone or together with a fixed dose of Bevacizumab, Oxaliplatin or Irinotecan in patients with stage IV colorectal cancer. A maximum of 63 Stage IV CRC patients eligible for 1st, 2nd or 3rd line treatment are planned to be enrolled in this study disposed as follows: three to six patients in each dose cohort, and three additional patients in one dose cohort in each treatment arm according to the following study design (Table 1).
[6R]-5,10-Methylenetetrahydrofolic acid ([6R]-MTHF) is formulated as a lyophylised powder containing 100 mg per vial (calculated as free acid). Dosing: Rapid i.v. bolus injections at a fixed dose of 30, 60, 120 or 240 mg/m^2, will be administered approximately 30 minutes after administration of 5-FU on Day 1 and Day 2 in each treatment cycle in all dose cohorts of the study (i.e. regardless of treatment arm). The regimen will be repeated every second week for up to eight (8) cycles, i.e. up to sixteen (16) weeks.
5-FU (5-fluorouracil) is formulated as injection solution. Dosing: 5-FU will be administered as i.v. bolus injections on Day 1 and Day 2 in each treatment cycle. In Arm #2 and Arm #3 of the study, 5-FU will be administered approximately 60 minutes after start of Oxaliplatin or Irinotecan administration, respectively (see description below). The treatment will be repeated every second week for up to eight (8) cycles, i.e. up to sixteen (16) weeks.
ISO-CC-005 is an open clinical phase I/II tolerability and dose definition study designed to evaluate safety and define the [6R]-MTHF dose for continued development. It evaluates four doses of [6R]-MTHF in combination with 5-FU with or without the different combinations of irinotecan or oxaliplatin and bevacizumab in patients with metastatic Colorectal Cancer using 4 different protocols: • MOD+5-FU: [6R]-MTHF in combination with 5-FU only, similar to Nordic FLV protocol • MOD+FLIRI: [6R]-MTHF in combination with 5-FU and Irinotecan, similar to Nordic FLIRI protocol • MOD+FLOX: [6R]-MTHF in combination with 5-FU and Oxaliplatin, similar to Nordic FLOX protocol • MOFOX: [6R]-MTHF in combination with 5-FU and Oxaliplatin, similar to FOLFOX-6 protocol
In one of the treatment protocols (MOFOX) the total dose of [6R]-MTHF was divided into two i.v. bolus injections dispensed approximately 30 and 60 minutes after the initial administration of 5-FU bolus injection (at 0 minute), respectively.
3 patients in total had at this point been treated according to the MOFOX protocol.
By December 2017 the first-line patients were assessed again after 16 weeks of treatment (16 weeks is considered the standard schedule for cancer treatment according to clinical practice guidelines for ESMO (European Society for Medical Oncology)). Four (4) 1st line patients could not be followed for the additional 8 weeks' treatment due to study protocol formalities, and no further 1st line patients had been analysed at this point.

[6] = ISO-CC-005 Phase I/II trial: safety / adverse events; format: in vivo, human
Description: A maximum of 63 Stage IV CRC patients eligible for 1st, 2nd or 3rd line treatment are planned to be enrolled in this study disposed as follows: three to six patients in each dose cohort, and three additional patients in one dose cohort in each treatment arm according to the following study design (Table 1). ISO-CC-005 is an open clinical phase I/II tolerability and dose definition study designed to evaluate safety and define the [6R]-MTHF dose for continued development. It evaluates four doses of [6R]-MTHF in combination with 5-FU with or without the different combinations of irinotecan or oxaliplatin and bevacizumab in patients with metastatic Colorectal Cancer using 4 different protocols: • MOD+5-FU: [6R]-MTHF in combination with 5-FU only, similar to Nordic FLV protocol • MOD+[…] in combination with 5-FU and Irinotecan, similar to Nordic FLIRI protocol • MOD+FLOX: [6R]-MTHF in combination with 5-FU and Oxaliplatin, similar to Nordic FLOX protocol • MOFOX: [6R]-MTHF in combination with 5-FU and Oxaliplatin, similar to FOLFOX-6 protocol By September 2017 the gastrointestinal (GI) adverse effects (AEs) for in total 37 patients had been analyzed. Of the 37 patients, only 2 (two) patients (5.4%) reported a GI adverse event (defined as nausea, vomiting and/or dehydration) of grade 3 or greater.

[7] = of 8 first-line patients, 16 weeks
[8] = of 13 patients analyzed by August 2017, 8 weeks
[9] = of first 12 first-line patients, 8 treatment weeks

Compound: O=c1[nH]cc(F)c(=O)[nH]1 [5-FU, 5-fluorouracil]
- overall response rate (solid tumors; 5-FU alone): 10-15%
- response rate (colorectal tumors; 5-FU given as a monotherapy): around 10%
- Response rates [1]: around 30%
- survival time [1]: around 6 months

Compound: Nc1nc(=O)c2c([nH]1)NCC1CN(c3ccc(C(=O)N[C@@H](CCC(=O)[O-])C(=O)[O-])cc3)CN21.[Ca+2] (stereo partly drawn) [CoFactor, (dl)-5,10,-methylenepteroyl-monoglutamate calcium salt]
- efficacy and safety compared with leucovorin (colorectal cancer; Phase IIb study, colorectal cancer): no significant differences
- ORR (colorectal cancer): 10.7%
- patients reporting at least one AE of grade 3 or greater [2]: 7.7%
- response rate [3]: 35%
- clinical benefit, defined as stable disease or tumor response, patients (pancreas cancer): 40%

Compound: Nc1nc2c(c(=O)[nH]1)N(C=O)C(CNc1ccc(C(=O)N[C@@H](CCC(=O)O)C(=O)O)cc1)CN2 (stereo partly drawn) [LV, 5-formyl tetrahydrofolic acid]
- Mean (t24-t0) plasma dUrd ([4]; LV 60 mg/m^2 BSA (racemate; active compound 30 mg/m^2), bolus with 5-FU 500 mg/m^2, 24 hours, n=48): 48.7 pmol/mL
- ORR (colorectal cancer): 13.3%
- patients reporting at least one AE of grade 3 or greater [2]: 3.3%
- overall response rates (solid tumors; LV added to 5-FU): over 20%
- response rate (colorectal tumors; Leucovorin (LV) added to 5-FU): 21%

Compound: Nc1nc2c(c(=O)[nH]1)N1CN(c3ccc(C(=O)N[C@@H](CCC(=O)O)C(=O)O)cc3)C[C@@H]1CN2 [[6S]-MTHF]
- effect on the natural [6R]-isomer as co-substrate for TS (Thymidylate Synthase): partial competitive inhibitor

Compound: Nc1nc2c(c(=O)[nH]1)N1CN(c3ccc(C(=O)N[C@@H](CCC(=O)O)C(=O)O)cc3)C[C@H]1CN2 [[6R]-MTHF, [6R]-5,10-methylenetetrahydrofolate]
- ORR ([5]; 8 remaining first-line patients, 16 weeks of treatment): 63%
- ORR (objective response rate) ([5]; 12 first-line patients group): 50%
- first-line patients with progressive disease (PD) ([5]; 12 first-line patients, 8 weeks): none
- ORR (objective response rate) ([5]; 13 patients (12 first-line + 1 second-line), RECIST 1.1): 54%
- progression of solid tumors between 8 and 16 weeks after initializing treatment ([5]; [6R]-MTHF and 5-FU, treatment period of at least 8 weeks): no patient displayed tumor progression; also recorded: No statistically significant progression
- clinical benefit, defined as stable disease or partial response, treated patients ([5]; [6R]-MTHF combined with 5-FU, colorectal cancer): > 90%
- ORRs achieved with initial 5-FU followed by multiple IV boluses of [6R]-MTHF ([5]; colorectal cancer patients, boluses interspaced by about 10-60 minutes): 60-80% and 60-85%
- patients with partial response (PR) ([5]; group treated with at least 60 mg/m2 [6R]-MTHF, 5 out of 7 patients, 8 weeks): 71%
- patients showing partial response [5, 7]: 5 patients
- patients showing stable disease [5, 7]: 3 patients
- patients showing partial response [5, 8]: 7 patients
- patients showing stable disease [5, 8]: 6 patients
- patients showing partial response (PR) [5, 9]: 6 patients
- patients showing stable disease [5, 9]: 6 patients
- safety profile compared to other patients in the study or historical control ([6]; 12 first-line patients): no signs of an impaired safety profile
- patients reporting a GI adverse event (nausea, vomiting and/or dehydration) of grade 3 or greater ([6]; 37 patients analyzed by September 2017 (2 patients)): 5.4%
- toxicity of 5-FU when combined with [6R]-MTHF compared to 5-FU with other folate adjuvants ([6]; ISO-CC-005 results so far): reduced
- Mean (t24-t0) plasma dUrd ([4]; [6R]-MTHF 30 mg/m^2 BSA bolus with 5-FU 500 mg/m^2, 24 hours, n=18): 74.7 pmol/mL
- level of dUrd vs equimolar LV, together with 5-FU ([4]; [6R]-MTHF 30 mg/m^2 vs LV 60 mg/m^2, p=0.03): significantly higher
- Mean (t24-t0) plasma dUrd ([4]; [6R]-MTHF 60 mg/m^2 BSA bolus with 5-FU 500 mg/m^2, 24 hours, n=16): 91.8 pmol/mL
- TS inhibition from fixed doses of 5-FU vs [6R]-MTHF dose (dUrd) ([4]; dUrd measurements incl. 120 mg vs 240 mg, ISO-CC-005): dose dependent and flattens off att very high doses
